A short description of series [1]: pH of the suspension containing MB. To be noted: Example 1: H2O2 at 15 vol. %, without or with TiO2. The series is classed as physicochemical. As for the experimental part: The aim was to measure if methylene blue could be degradated by H2O2 (PERDROGEN® 30% H2O2 (w/w), Sigma Aldrich AS, Oslo, Norway) at 15% only, without TiO2 or UV irradiation. Then, an increasing concentration of TiO2 (Aeroxide P25, Evonik AG, Essen, Germany) was added to the solution until a maximum concentration of 8 g/L. The measurements were taken every 3 minutes for one hour. The pH of the suspension containing MB was also registered. The suspension was stirred prior to each measurement to prevent the deposition of the TiO2 particles.
The aim was to measure if methylene blue could be degradated by TiO2 nanoparticles only (Aeroxide P25, Evonik AG, Essen, Germany), without H2O2 or UV irradiation. Then, an increasing concentration of H2O2 (PERDROGEN® 30% H2O2 (w/w), Sigma Aldrich AS, Oslo, Norway) was added to the suspension until a maximum concentration of 15 vol. %. The procedure of the experiment was the same as explained in example 1.

Series [2] can be described thus: Methylene blue degradation measured by UV-vis spectrophotometry. To be noted: Example 1: H2O2 at 15 vol. %, TiO2 at various concentrations, no UV irradiation, measured every 3 minutes for one hour. From the text: Methylene blue (MB) is a heterocyclic aromatic chemical compound with molecular formula: C16H18N3SCl (AldrichSigmaAldrich, Oslo, Norway). It has many uses in a range of different fields, such as biology and chemistry. […] A degradadation of MB therefore can be used as a model for the in vivo degradation of organic material, such as bacteria, or dead, damaged, and/or infected tissue. At room temperature it appears as a solid, odourless, dark green powder that yields a blue solution when dissolved in water. When degradated in solution, methylene blue becomes colourless. When methylene blue is analysed by UV-vis spectrophotometry (Lambda 25, Perkin Elmer, USA), it absorbs light at […]. This machine was used to quantify the degradation of MB.
The aim was to measure if methylene blue could be degradated by H2O2 (PERDROGEN® 30% H2O2 (w/w), Sigma Aldrich AS, Oslo, Norway) at 15% only, without TiO2 or UV irradiation. Then, an increasing concentration of TiO2 (Aeroxide P25, Evonik AG, Essen, Germany) was added to the solution until a maximum concentration of 8 g/L. The measurements were taken every 3 minutes for one hour. The pH of the suspension containing MB was also registered. The suspension was stirred prior to each measurement to prevent the deposition of the TiO2 particles. […]

Each structure is given as a SMILES string.

With `OO` [H2O2 at 15 vol. %, H2O2], in series [1], the “pH of the suspension containing MB” value is given as 3.7. For the same compound, the Methylene blue degradation result in series [2] is reported as “Almost no degradation”.

These data come from patent publication US20120308623A1, “COMPOSITION COMPRISING NANOPARTICLES OF TI02” (priority 2009, published 2012).
